Reference: BindingDB's records for doi:10.1021/jm401798r (University of Michigan, 2014)

Legend:
D(3) dopamine receptor [1] = biological target: D(3) dopamine receptor (Rattus norvegicus, UniProt P19020); assay: Displacement of [3H]R-(+)-7-OHDPAT from dopamine D3 receptor in Sprague-Dawley rat ventral striatum after 90 mins
D(2) dopamine receptor = D(2) dopamine receptor (Homo sapiens, UniProt P14416); assay: Displacement of [3H]N-methylspiperone from human dopamine D2 receptor expressed in HEK293 cells after 1 hr by liquid scintillation counting analysis
Sequence of D(2) dopamine receptor (P14416 whole entry): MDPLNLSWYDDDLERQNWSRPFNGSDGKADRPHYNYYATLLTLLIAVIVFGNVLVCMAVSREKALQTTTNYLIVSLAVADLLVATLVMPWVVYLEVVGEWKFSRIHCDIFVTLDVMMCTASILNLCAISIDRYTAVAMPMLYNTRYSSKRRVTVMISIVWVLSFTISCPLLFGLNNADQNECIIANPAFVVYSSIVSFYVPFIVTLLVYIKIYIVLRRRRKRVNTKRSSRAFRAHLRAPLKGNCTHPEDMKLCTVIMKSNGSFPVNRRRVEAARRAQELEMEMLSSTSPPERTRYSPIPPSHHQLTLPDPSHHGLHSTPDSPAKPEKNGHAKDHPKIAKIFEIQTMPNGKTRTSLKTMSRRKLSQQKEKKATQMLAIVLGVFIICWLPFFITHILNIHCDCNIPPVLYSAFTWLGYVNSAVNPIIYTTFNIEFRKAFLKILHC

D(3) dopamine receptor [2] = biological target: D(3) dopamine receptor (Homo sapiens, UniProt P35462); assay: Displacement of [3H]N-methylspiperone from human dopamine D3 receptor expressed in HEK293 cells after 1 hr by liquid scintillation counting analysis
Sequence of D(3) dopamine receptor (Homo sapiens, UniProt P35462) (P35462 as listed by the source): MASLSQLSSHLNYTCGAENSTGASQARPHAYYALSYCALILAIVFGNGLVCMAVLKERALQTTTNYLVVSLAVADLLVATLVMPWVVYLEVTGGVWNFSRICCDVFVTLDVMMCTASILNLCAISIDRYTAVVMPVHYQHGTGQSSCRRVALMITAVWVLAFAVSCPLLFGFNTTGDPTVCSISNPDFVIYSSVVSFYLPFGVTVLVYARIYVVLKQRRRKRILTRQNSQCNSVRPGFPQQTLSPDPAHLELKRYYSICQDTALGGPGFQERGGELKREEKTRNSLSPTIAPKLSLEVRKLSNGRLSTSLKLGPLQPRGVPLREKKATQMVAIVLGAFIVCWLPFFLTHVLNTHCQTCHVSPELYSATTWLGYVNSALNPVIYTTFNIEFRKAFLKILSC

Sequence of D(3) dopamine receptor (Rattus norvegicus, UniProt P19020) (P19020 whole entry): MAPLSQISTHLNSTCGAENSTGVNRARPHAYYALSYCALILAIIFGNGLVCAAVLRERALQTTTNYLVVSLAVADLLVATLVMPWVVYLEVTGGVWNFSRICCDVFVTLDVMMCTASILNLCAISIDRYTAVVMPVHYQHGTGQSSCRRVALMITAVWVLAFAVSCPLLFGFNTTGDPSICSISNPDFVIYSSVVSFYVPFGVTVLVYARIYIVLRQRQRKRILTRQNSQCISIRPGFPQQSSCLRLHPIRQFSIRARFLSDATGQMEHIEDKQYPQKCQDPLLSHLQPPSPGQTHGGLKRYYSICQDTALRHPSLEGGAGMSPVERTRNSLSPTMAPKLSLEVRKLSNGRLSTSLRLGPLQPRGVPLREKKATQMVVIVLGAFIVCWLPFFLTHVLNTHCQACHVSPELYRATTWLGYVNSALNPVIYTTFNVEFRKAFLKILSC

Row | Ki (D(3) dopamine receptor [1]) | Ki (D(2) dopamine receptor) | Ki (D(3) dopamine receptor [2]) | SMILES
1 | 28 nM | 1220 nM | 38 nM | CCCN(CC[C@]1(O)C[C@@H](NC(=O)c2ccc3ccccc3c2)C1)[C@H]1C[C@@H]1c1cccc(Cl)c1
2 | 19 nM | 923 nM | 22 nM | CCCN(CC[C@]1(O)C[C@@H](NC(=O)c2ccc3ccccc3c2)C1)[C@H]1C[C@@H]1c1ccccc1Cl

Row | SMILES | Ki (D(3) dopamine receptor [1]) | Ki (D(2) dopamine receptor) | Ki (D(3) dopamine receptor [2])
3 | CCCN(CC[C@]1(O)C[C@@H](NC(=O)c2ccc3ccccc3c2)C1)C1CC1c1ccc(Cl)cc1 (some centres undefined) | 4.6 nM | 667 nM | 2.6 nM
